Experimental data from patent publication US9211313B2, “Methods and compound to inhibit Ca2+ permeable cation conductance” (priority 2011, dated 2015).

Experiments:
[1] = tested on: SAD sickle mouse red cells; assay: Fluo-3 fluorescence measurement of [Ca2+]i during deoxygenation, SAD cells; assay type: cell-based; settings: 1 μM; SAD red cells
Procedure: Blood was withdrawn by cardiac puncture or from the tail vein of C57B16/J wildtype mice, SAD sickle mice, or Berkeley sickle mice into heparinized syringes by IACUC-approved protocols of Beth Israel Deaconess Medical Center. Buffy coat-depleted cells were washed 5 times in standard mouse red cell wash solution containing (in mM) 172 choline Cl, 10 sucrose, 10 Na Tris-MOPS, pH 7.4, resuspended in storage solution, and kept at 4° C. until use.
Fluorescence measurements of cytosolic [Ca^2+] ([Ca^2+]i): After removal of plasma and buffy coat by aspiration, human or mouse red cells were washed three times at room temperature and suspended in modified Hank's solution containing (in mM), 137 NaCl, 5.4 KCl, 1 CaCl2, 1 MgCl2, 0.8 NaK phosphate, 5.6 glucose, and 10 Na HEPES, pH 7.4. Dilute cell suspensions were settled on polylysine-coated coverslips forming the bottom of an open perfusion chamber (2.5 cm diameter, 1 cm depth) and washed again 3 times.
Measurement of relative changes in [Ca^2+]i by Fluo-3 fluorescence emission was previously validated in intact human (Yang et al. 2000, Blood, 95(7):2421-2425; Andrews et al. 2002, Blood, 199(9):3392-3399) and mouse red cells (Akel et al. 2007, Amer. J. Physiol., 292(5):C1759-1767). Attached red cells were loaded in the dark with the fluorescent non-ratiometric Ca^2+ indicator Fluo-3-AM (10 μM, Molecular Probes, Eugene, Oreg.) at 37° C. for 1 hr, then washed and incubated 15 min further to allow de-esterification of intracellular dye. The open perfusion chamber containing dye-loaded cells was mounted on an Olympus IMT-2 inverted epifluorescence microscope equipped with CoolSNAP CCD camera (Photometrics, Tucson, Ariz.). Fluo-3 in cells imaged through a 60× objective was excited by mercury-xenon illumination passed through a 495ds20 filter. Fluorescence emission (proportional to [Ca^2+]i) from a 535ds20 bandpass filter was collected from all attached single cells within the arbitrarily selected visual field. Emission image acquisition was controlled by a Metafluor digital imaging system (Universal Imaging, West Chester, Pa.).
Fluo-3 fluorescence from attached cells on each coverslip was recorded 60 sec in room air and then for 10 min after onset of perfusion chamber flushing with humidified 100% N2. The normalized increase in Fluo-3 fluorescence in SS cells subjected to this deoxygenation procedure was indistinguishable from that observed during superfusion of cells in a closed perfusion chamber via syringe pump with bath previously bubbled for 60 min with 100% N2 (n=62 cells from 2 SS patients, not shown). The y-axis value of 0% change in Fluo-3 fluorescence intensity represented mean intensity recorded from all cells within the coverslip visual field during the 60 sec prior to deoxygenation.

[2] = tested on: LPA-induced cation conductance in human SS red cells; assay: On-cell patch clamp of LPA-induced cation conductance; assay type: cell-based; settings: 1 μM in the pipette
From the text: On-cell patch clamp: Borosilicate pipettes (Corning 7052) pulled with a Narishige two stage puller or a Sutter P97 puller and fire-polished to resistances of 10-20 MΩ were front-filled and then backfilled. Symmetric bath and pipette solutions for studies of seal resistance stability during reversibility tests of the deoxygenation-activated conductance in SAD mouse red cells were (in mM) 140 NaCl, 4 KCl, 1 CaCl2, 1 MgCl2, 10 Na HEPES, pH 7.4. These conditions yielded tight seals in 13% of patch attempts on SAD cells. For study of deoxygenation-induced monovalent cation permeation in the absence of bath Ca^2+ and Mg^2+ recorded in SAD and Berkeley mouse cells and in human cells, symmetric bath and pipette solutions contained (in mM) 150 Na methanesulfonate, 10 Na EDTA, and 10 Na HEPES, pH 7.4. These conditions yielded tight seals in 16% of patch attempts on SAD mouse red cells, 26% of attempts on Berkeley mouse cells, and 30% of attempts on human SS cells. For study of Ca^2+ permeation in human SS cells, bath and pipette solutions contained (in mM) 100 CaCl2, 10 Na HEPES, pH 7.4. These conditions yielded tights seals on 44% of attempts. For all conditions tested in human red cells, 70% of tight seals were sustained through the solution change accompanying deoxygenation to allow recording of current activity.
On-cell patch currents were recorded with the Axopatch 1-D amplifier (Axon Instruments/Molecular Devices, Sunnyvale, Calif.). Holding potential was −Vp=−50 mV (expressed as the negative of the pipette potential (e.g., equivalent to the intracellular potential with respect to the pipette). To determine current-voltage relationships (I-V curves) in Fetchex or Clampex (PCLAMP, Axon Instruments), the realtime control window in gap-free mode was used to record current traces of 10-30 sec duration at holding potentials ranging from −100 to +100 mV, in 25 mV increments. The bath reference electrode was a silver chloride wire with a 3 M KCl agar bridge. Data was filtered at 500 Hz, digitized at 2 kHz by Clampex, and analyzed offline by Fetchan and Pstat or by Clampfit subroutines of PCLAMP. Holding potentials in on-cell patch experiments were expressed as −Vp, the negative of the pipette potential.
Deoxygenation-activated flickering cation conductance observed in human SS cells contrasted with the prolonged channel openings produced by 5 μM LPA (FIG. 10A). In SS cells, LPA increased NPo […], from 0.04±0.03 to 0.82±0.18 (n=8, p<0.001; Na methanesulfonate in bath and pipette, −Vp=−50 mV; FIG. 10B). LPA-induced cation conductance was 96% inhibited by 100 uM dipyridamole in the pipette, and 97% inhibited by 1 μM GsMTx-4 in the pipette (both n=4).

KCa3.1 = molecular target: T1, KCa3.1 (Homo sapiens, UniProt O15554); assay type: cell-based; settings: 1 μM; intact human AA cells, 1 μM A23187, extracellular Ca2+; n=3
T1 construct: KCa3.1 activity stimulated in intact human AA cells by 1 μM A23187; endogenous in cells; host or cells: intact human AA red blood cells
T1 sequence (O15554 whole entry): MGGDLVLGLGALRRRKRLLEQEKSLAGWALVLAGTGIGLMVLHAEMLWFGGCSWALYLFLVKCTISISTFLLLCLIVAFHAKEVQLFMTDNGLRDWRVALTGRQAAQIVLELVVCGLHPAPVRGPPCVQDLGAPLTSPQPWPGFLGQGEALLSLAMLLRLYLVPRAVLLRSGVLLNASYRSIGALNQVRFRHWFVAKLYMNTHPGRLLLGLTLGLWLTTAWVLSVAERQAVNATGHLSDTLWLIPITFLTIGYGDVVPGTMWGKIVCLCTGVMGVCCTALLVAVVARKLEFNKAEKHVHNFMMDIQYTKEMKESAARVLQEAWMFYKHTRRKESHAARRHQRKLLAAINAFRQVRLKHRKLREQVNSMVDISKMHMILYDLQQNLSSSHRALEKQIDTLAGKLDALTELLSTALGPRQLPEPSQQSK

mdx mice = assay: Toxicity with daily subQ dosing for 30 days; assay type: in vivo, mouse
Procedure: This example describes toxicity studies with GsMTx-4. In one experiment, D-GsMTx4 was administered to 60 mdx mice and controls by daily subQ dosing at 5 mg/kg for 30 days at the Washington D.C. Wellstone center.

Substance: Grammastola spatulata mechanotoxin 4 (GCLEFWWKCNPNDDKCCRPKLKCSKLFKLCNFSF; listed as Grammastola spatulata) [GsMTx-4]
- effect on increased [Ca2+]i accompanying deoxygenation [1]: completely inhibited
- effect on LPA-induced increase in NPo [2]: prevented
- inhibition of LPA-induced cation conductance ([2]; 5 μM LPA, n=4): 97%
- effect on KCa3.1 activity, cell shrinkage (KCa3.1): no effect
- toxicity in mice, general statement (mdx mice): very low to absent toxicity
- toxicity (mdx mice; 5 mg/kg subQ daily, 30 days (month long)): no toxicity observed
